The compounds below were run on Canis familiaris (assay: Toxicity in dog assessed as change in cardiovascular variables up to 5 mg/kg by telemetry study). Details: in vivo.
Format: organism-based, Canis lupus familiaris, Heart
Parameters: dose 5 mg/kg

Row | Structure (SMILES) | Activity
1 | CCc1ccc(OCc2ccccc2C(=O)Nc2ccc3nc(C)cc(N)c3c2)cc1 | Non-toxic
2 | O=C(NCCCN1CCC2(CC1)OCc1ccccc12)[C@H]1CCCN1Cc1ccccc1 | Non-toxic
3 | O[C@H]1C[C@H](CN2CC[C@H](c3ccc(F)cc3Cl)[C@@H](O)C2)Cc2cccnc21 | Non-toxic
4 | COC(=O)C1Cc2ccccc2N1C(=O)CCN1CCC2(CCc3ccccc32)CC1 (stereo not drawn) | Non-toxic
5 | CCN1CCN(c2cc3[nH]c(C(=O)[C@]4(C)CC[C@](C)(O)CC4)nc3cc2C)CC1 | Non-toxic
6 | CN1CC(C(=O)NCCCN2CCC3(CCc4ccccc43)CC2)CC1=O (stereo not drawn) | Non-toxic
7 | Cc1cccc2c1CC[C@H](CN1CCC(c3c(Cl)cccc3Cl)CC1)C[C@@H]2O | Non-toxic
8 | Cc1ccc2nc(NC(=O)c3ccc(Cl)cc3)nc(N[C@H]3CCCC[C@H]3NC(=N)N)c2c1 | Non-toxic

— ChEMBL document CHEMBL1158463 (J Med Chem, 2009)
